Results reported in patent US20040009485A1, “Cellular arrays for the identification of altered gene expression” (priority 2002, published 2004).
“And” between values parts separate entries of the source, which are not always exact repeats. Equal values may be shown once. Read-outs that look alike come from different tables or passages of the source.

Legend:
[1] = tested on: luxCDABE gene fusions in lexAind host; experiment: Mitomycin C and nalidixic acid responses in lexAind host; assay type: cell-based, E. coli; details: for MitC Ratio, 2 hr 250 ng/ml: lexAind host
Protocol: (§1) In addition, the effect of a lexAind mutation was tested to determine if any of these were part of the SOS regulon. The expectation is that SOS regulon member will be induced by both nalidixic acid and mitomycin C in a manner that is dependent on lexA function (Walker, G. C., (1996) Escherichia coli and Salmonella: Cellular and Molecular Biology ASM Press). […] This is consistent with the observation of upregulation of the b1728 mRNA transcript upon mitomycin C treatment in a LexA dependent fashion (Fernández de Henestrosa et al. (2000). Mol. Microbiol. 35:1560-1572). Likewise, two Gene fusions, those to oraA and yigN were identified is new members of the SOS regulon (Table 16). […] Negative, non-DNA damage responsive gene fusions were also included (Table 16).

[2] = tested on: luxCDABE gene fusions in lexA+ host; experiment: Mitomycin C and nalidixic acid responses in lexA+ host; assay type: cell-based, E. coli; details: for MitC Ratio, 2 hr 250 ng/ml: lexA+ host
Protocol: as §1

[3] = tested on: luxCDABE gene fusions of the Lux-A Collection; experiment: Induction of Lux-A Collection gene fusions by MMC (and yebF fusion by nalidixic acid); assay type: cell-based, E. coli
Protocol: The Lux-A Collection of reporter gene fusions was examined for presence of fusions to the genes in Table 11. […] Each of these was tested for induction by MMC at several doses over a time course of 100 minutes.
As expected, the expression of the known SOS genes was elevated; however the expression of several was elevated less than 2-fold (Table 12) and as such were within a large group of 792 genes the expression of which was elevated by 20% or more. Most of these are likely due to artifacts in the array data rather than to actual biologically relevant responses. To test if strains carrying luxCDABE gene fusions would yield the expected positive result, the three gene fusions that were available in the Lux-A Collection of reporter gene fusions were tested for mitomycin C responses.
In this case, a divergent promoter to the purT gene was present in the chromosomal fragment and strains containing the backward yebF fusion produced light. […] […] The orientation of the inserted segment to yield a fusion of yebF to the luxCDABE operon was confirmed by DNA sequence analysis.

[4] = tested on: ahpC-luxCDABE fusions in E. coli host strain DPD2228 (pcnB80); details: for H2O2 response ratio in pcnB- host: 0.002% hydrogen peroxide, 30 minutes, LB
Protocol: (§2) To test the stress responses, one or two single colonies of each selected strain were used to inoculate 5.0 ml of LB medium containing 150 μg/ml of ampicillin. These cultures were grown overnight at 37° C. then diluted by adding 50 μl or 100 μl of the overnight culture into 10.0 ml of fresh LB medium (without ampicillin) and grown with agitation at 37° C. until the culture was in exponential phase with readings on a Klett-Summerson colorimeter containing the red filter of between 10 and 40. These actively growing cultures were immediately used to initiate a stress response experiment by adding 50 μl of cultures to 50 μl of LB medium containing various concentrations of chemical in the wells a 96 well luminometer plate. This division of the actively growing culture at the time of chemical addition ensured identical populations were present when the stress was imposed. Light production was measured in a Dynex ML3000 luminometer at 37° C. The dimensionless units of light production, relative light units (RLU), are obtained by comparison with the light reading from an internal light-emitting diode. The cycle mode of the ML3000 luminometer, similar to previous descriptions (Van Dyk et al., Appl. Environ. Microbiol. 60:1414-120) was used.

[5] = tested on: OxyR regulon gene fusions (ahpC-luxCDABE); details: for H2O2 response ratio: ahpC fusion, 0.002% hydrogen peroxide, 30 minutes, LB
Protocol: as §2
To test if these strains would report on activation of the OxyR-controlled oxidative stress response, each was treated with hydrogen peroxide at 0.016, 0.008, 0.004, 0.002, 0.001, 0.0005, 0.00025%.

[6] = tested on: SoxR/S regulon gene fusions; experiment: Stress response of SoxR/S regulon luxCDABE gene fusions (methyl viologen); assay type: cell-based, E. coli; details: for Methyl viologen response ratio: 250 μg/ml, 120 minutes, LB, treated/untreated
Protocol: Like the SOS and heat shock regulon fusions, these had basal light production greater than the promoterless parental plasmid indicating the presence of a promoter. Responsiveness of four of these strains to a known inducer of the SoxR/S regulon, methyl viologen, was tested at 1000, 500, 250, 125, 62, 31 and 16 μg/ml. […] Table 8 gives the response ratio for 250 μg/ml at 120 minutes of treatment for the four tested strains. Here again, the biologically appropriate response was observed.

[7] = tested on: heat shock regulon gene fusions; experiment: Stress response of heat shock regulon luxCDABE gene fusions (ethanol); assay type: cell-based, E. coli; details: for 3% Ethanol Response ratio: 40 minutes, LB, treated/untreated
Protocol: as §2, with “used. […]” for “used.”

[8] = tested on: clpB-luxCDABE gene fusion; details: 38 min; for Response Ratio: 4% ethanol; for Light production in LB + 4% ethanol: 37° C.
Protocol: Plasmid DNA was isolated from lux-a.pk043.d3, digested with restriction enzyme XmaI, and ligated with T4 DNA ligase. The ligation reaction was used to transform E. coli strain DPD1675 by electroporation. Transformants were selected by ampicillin resistance. […] Actively growing cultures at 37° C. in LB medium were treated with 4% ethanol arid light production was quantitated at 37° C. using a microplate luminometer (Dynex ML3000). Table 17 summarizes the average bioluminescence of duplicate samples at 38 min after treatment.

SOS regulon gene fusions = experiment: Stress response of SOS regulon luxCDABE gene fusions (nalidixic acid); assay type: cell-based, E. coli; details: SOS regulon gene fusions; 5, 4, or 3% (v/v) ethanol
Protocol: as §2
The ability of these promoter-luxCDABE fusions to report activation of the SOS stress response was tested using nalidixic acid, a known, potent chemical inducer. The final concentrations of nalidixic acid were 1, 5, 25, and 125 μg/ml for all but strain DPD2293, which was tested at 80, 40, 20, 10, 5, 2.5, and 1.25 μg/ml.
Specificity of responses was tested by measuring the effect of ethanol on these SOS regulon gene fusions.

[9] = 1pxA 1pxB rnhB dnaE fusion (lux-a.pk061.c3)
[10] = dinG ybiB fusion (lux-a.pk0024.f5)
[11] = lacZ fusion (65.d4), negative control
[12] = yciG fusion (lux-a.pk006.b4), negative control
[13] = lux-a.pk054.c3 (DPD2243), clpB fusion

CO[C@@]12[C@H](COC(N)=O)C3=C(C(=O)C(C)=C(N)C3=O)N1C[C@@H]1N[C@@H]12 [MMC, mitomycin C]
MitC Ratio, 2 hr 250 ng/ml [1, 9]: 1.29 | MitC Ratio, 2 hr 250 ng/ml ([1]; b1728 fusion (lux-a.pk033.c5)): 0.90 | MitC Ratio, 2 hr 250 ng/ml ([1]; b1936 fusion (lux-a.pk0019.g1)): 2.46 | MitC Ratio, 2 hr 250 ng/ml [1, 10]: 1.15 | MitC Ratio, 2 hr 250 ng/ml ([1]; fusion (lux-a.pk0015.d6)): 1.73 | MitC Ratio, 2 hr 250 ng/ml [1, 11]: 1.24 | induction of b1728 promoter-luxCDABE fusion ([1]; lexAind host strain (FIG. 9)): not induced | MitC Ratio, 2 hr 250 ng/ml ([1]; oraA fusion (lux-a.pk058.f5)): 1.21 | MitC Ratio, 2 hr 250 ng/ml ([1]; yaaF fusion (lux-a.pk031.e7)): 0.99 | MitC Ratio, 2 hr 250 ng/ml [1, 12]: 0.61 | MitC Ratio, 2 hr 250 ng/ml ([1]; yigN fusion (lux-a.pk046.f11)): 0.93 | MitC Ratio, 2 hr 250 ng/ml [2, 9]: 1.06 | MitC Ratio, 2 hr 250 ng/ml ([2]; b1728 fusion (lux-a.pk033.c5)): 8.97 | MitC Ratio, 2 hr 250 ng/ml ([2]; b1936 fusion (lux-a.pk0019.g1)): 1.22 | MitC Ratio, 2 hr 250 ng/ml [2, 10]: 5.01 | MitC Ratio, 2 hr 250 ng/ml ([2]; fusion (lux-a.pk0015.d6)): 1.12 | MitC Ratio, 2 hr 250 ng/ml [2, 11]: 0.80 | induction of b1728 promoter-luxCDABE fusion ([2]; lexA+ host (FIG. 9)): clearly induced | MitC Ratio, 2 hr 250 ng/ml ([2]; oraA fusion (lux-a.pk058.f5)): 15.27 | MitC Ratio, 2 hr 250 ng/ml ([2]; yaaF fusion (lux-a.pk031.e7)): 1.02 | MitC Ratio, 2 hr 250 ng/ml [2, 12]: 0.56 | MitC Ratio, 2 hr 250 ng/ml ([2]; yigN fusion (lux-a.pk046.f11)): 9.84 | Induction of Fusion ([3]; b1847 (yebF)-luxCDABE fusion (when inverted), MMC): YES | Induction of Fusion ([3]; b1847 (yebF)-luxCDABE fusion (when inverted), MMC, listed as mitomycin C): induction by mitomycin C was demonstrated | Induction of Fusion ([3]; dinB (dinP)-luxCDABE fusion, several doses of MMC, time course of 100 minutes): YES | Induction of Fusion ([3]; dinF-luxCDABE fusion, MMC): YES | Induction of Fusion ([3]; dinG-luxCDABE fusion, MMC): YES | Induction of Fusion ([3]; recA-luxCDABE fusion, several doses of MMC, time course of 100 minutes): YES | Induction of Fusion ([3]; ruvA-luxCDABE fusion, several doses of MMC, time course of 100 minutes): YES | Induction of Fusion ([3]; uvrA-luxCDABE fusion, several doses of MMC, time course of 100 minutes): YES | Induction of Fusion ([3]; uvrD-luxCDABE fusion, MMC): YES

OO [H2O2, hydrogen peroxide]
induction of bioluminescence ([4]; both ahpC-luxCDABE strains in pcnB- host, each of seven conc 0.004-0.00006%): dramatically induced increased bioluminescence | H2O2 response ratio in pcnB- host ([4]; plasmid of DPD2283 (lux-a.pk051.d5) in DPD2228): 16.5 | H2O2 response ratio in pcnB- host ([4]; plasmid of DPD2284 (lux-a.pk051.e3) in DPD2228): 15.3 | H2O2 response ratio ([5]; DPD2283 (lux-a.pk051.d5)): 1.3 | H2O2 response ratio ([5]; DPD2284 (lux-a.pk051.e3)): 1.6 | H2O2 response ratio ([5]; DPD2285 (lux-a.pk03.d6)): 1.2 | induction of bioluminescence ([5]; three ahpC-luxCDABE strains, 0.016-0.00025% hydrogen peroxide): minimally induced

C[n+]1ccc(-c2cc[n+](C)cc2)cc1 [Methyl viologen, methyl viologen]
bioluminescence compared with untreated culture ([6]; each of four SoxR/S fusion strains, each of 1000, 500, 250, 125, 62, 31 and 16 μg/ml): induced increased bioluminescence | Methyl viologen response ratio ([6]; inaA fusion, DPD2087 (lux-a.pk014.a9)): 9.0 | Methyl viologen response ratio ([6]; poxB fusion, DPD3509 (lux-a.pk071.all)): 15.0 | Methyl viologen response ratio ([6]; ribA fusion, DPD2286 (lux-a.pk078.d2)): 4.7 | Methyl viologen response ratio ([6]; zwf fusion, DPD2272 (lux-a.pk082.g7)): 3.6

CCO [Ethanol, ethanol]
3% Ethanol Response ratio ([7]; clpB fusion, DPD2243 (lux-a.pk054.c3)): 4.7 | bioluminescence compared with untreated culture ([7]; each of the six heat shock fusion strains, at least two of 5, 4, 3, 2 (v/v)% ethanol): increased bioluminescence | 3% Ethanol Response ratio ([7]; grpE fusion, DPD2241 (lux-a.pk057.h1)): 5.2 | 3% Ethanol Response ratio ([7]; lon fusion, DPD2242 (lux-a.pk021.g11)): 5.6 | 3% Ethanol Response ratio ([7]; rfaDFCL fusion, DPD2244 (lux-a.pk040.e4)): 1.4 | 3% Ethanol Response ratio ([7]; rpoD fusion, DPD2246 (lux-a.pk089.e7)): 2.4 | Response Ratio ([8]; Inverted lux-a.pk043.d3 (two transformants)): 6.5 and 5.5 | Light production in LB + 4% ethanol ([8]; lux-a.pk043.d3 (clpB promoter not operably linked)): 0.0025 RLU | Response Ratio [8, 13]: 9.4 | Light production in LB + 4% ethanol [8, 13]: 13.00 RLU | bioluminescence of SOS regulon gene fusions (specificity) (SOS regulon gene fusions): little to no increased biolumninescence
